According to patent publication US20260062388A1, “POLYMORPHIC FORM OF NEPICASTAT ACID ADDITION SALT, PREPARATION METHOD THEREFOR AND USE THEREOF” (Jiangsu Yahong Meditech Co., Ltd., priority 2022, published 2026):
In brackets after ≈: the same amount, converted by molar mass.

How the values were obtained:
Format in all cases: physicochemical
[1] = Approximate solubility test of the free base of nepicastat; settings: for solubility: thermodynamic from solid, approximate solubility
Procedure: In order to select a suitable method for salt form screening, an approximate solubility test was conducted on the compound. The test method was as follows: about 4 mg of the free base of nepicastat was weighed, an appropriate volume of a solvent was added gradually thereto and shaken to observe whether the free base was dissolved, and the volumes of the solvent were recorded, including the volume that enabled complete dissolution and the previous volume of the solvent that was not able to completely dissolve the free base. For poor solubility, the total amount of the solvent added was no more than 4 mL. The approximate solubility thereof was calculated.

[2] = Stability tests on crystal forms of acid addition salts: high-temperature test and accelerated test, 4 weeks; settings: for stability under accelerated conditions: 40° C.±2° C./75% RH±5% RH; for stability under high temperature conditions: 60±2° C.
[3] = Approximate solubility tests on crystal forms of acid addition salts of nepicastat in water (room temperature)
[4] = Approximate solubility test on crystal forms of hydrochloride salt of nepicastat at room temperature; settings: purified water
[5] = Dynamic vapor sorption (DVS) hygroscopicity
Procedure: DVS curves are acquired on DVS Intrinsic from SMS (Surface Measurement Systems). • Testing temperature: 25° C. • Sample amount: 10-20 mg • dm/dt: 0.002%/min; • RH range: 0% RH-95% RH-0% RH • RH gradient: 10%

[6] = Stability studies under relatively harsh conditions (40° C., 40° C./75% RH, 60° C., 60° C./75% RH) on crystal forms I and II
[7] = Competitive experiments of crystal forms I and II by adding crystal seeds (different water activities); settings: room temperature, 3 days
Procedure: To confirm stability of the crystal forms at room temperature, the following competitive experiments were conducted for the crystal forms I and II:
The suspensions were stirred for 24 hours at room temperature, and all systems had solid residues. All systems were centrifuged and the supernatants were taken. […] The resulting suspensions were sonicated for 1 minute, stirred for 3 days at room temperature, and sampled to detect the crystal form.

Q: For `NCc1c[nH]c(=S)n1[C@H]1CCc2c(F)cc(F)cc2C1` [free base of nepicastat, Nepicastat], which “approximate solubility (qualitative)” value ([1]; in dichloromethane:methanol (1:1, V:V), methanol, acetone and ethanol) is on record?
A: The value was “higher solubility”.

Q: What about the solubility ([1]; organic solvent or mixture, solvent 2-Methyltetrahydrofuran) of the same compound?
A: Its solubility is < 1000 µg/mL.

Q: And the solubility ([1]; organic solvent or mixture, solvent Acetone)?
A: Its solubility is 4000 to 5000 µg/mL (≈ 13.5 to 16.9 mM).

Q: What about the solubility ([1]; organic solvent or mixture, solvent Dichloromethane) of the same compound?
A: The solubility was < 1000 µg/mL.

Q: And the solubility ([1]; organic solvent or mixture, solvent Dichloromethane:methanol (1:1))?
A: Its solubility is 19700 to 39300 µg/mL (≈ 66.7 to 133 mM).

Q: And the solubility ([1]; organic solvent or mixture, solvent Ethanol)?
A: Its solubility is 2900 to 3400 µg/mL (≈ 9.82 to 11.5 mM).

Q: And the solubility ([1]; organic solvent or mixture, solvent Ethyl acetate)?
A: The solubility was < 1000 µg/mL.

Q: What about the solubility ([1]; organic solvent or mixture, solvent Methanol) of the same compound?
A: The solubility was 6900 to 10300 µg/mL (≈ 23.4 to 34.9 mM).

Q: And the solubility ([1]; organic solvent or mixture, solvent Methyl tert-butyl ether)?
A: The solubility was < 1000 µg/mL.

Q: And the solubility ([1]; organic solvent or mixture, solvent N-heptane)?
A: The solubility was < 1000 µg/mL.

Q: And the solubility ([1]; solvent Purified water)?
A: The solubility was < 1000 µg/mL.

Q: What does the source list for `CS(=O)(=O)O.NCc1c[nH]c(=S)n1[C@H]1CCc2c(F)cc(F)cc2C1` [crystal form I of methanesulfonate salt, methanesulfonate salt of nepicastat]?
A: stability under accelerated conditions [2]: stable; stability under high temperature conditions [2]: stable

Q: For `NCc1c[nH]c(=S)n1[C@H]1CCc2c(F)cc(F)cc2C1.O=P(O)(O)O` [crystal form I of phosphate salt, phosphate salt of nepicastat], which “stability under accelerated conditions” value [2] is on record?
A: The value was “stable”.

Q: What about the “stability under high temperature conditions” value [2] of the same compound?
A: The value was “the impurities slightly increased”.

Q: What does the source list for “maleate salt of nepicastat [crystal form I of maleate salt]”?
A: Approximate solubility ([3]; in purified water, at room temperature, calculated by the salt): 1.8~3.6 mg/mL; solubility in purified water compared with other candidate salt forms ([3]; purified water, room temperature): slightly higher than that of other candidate salt forms; stability under accelerated conditions [2]: stable; stability under high temperature conditions [2]: stable

Q: What does the source list for `NCc1c[nH]c(=S)n1C1CCc2c(F)cc(F)cc2C1.O=C(O)CC(O)(CC(=O)O)C(=O)O` (stereo not shown) [crystal form I of citrate salt, citrate salt of nepicastat]?
A: stability under accelerated conditions [2]: stable; stability under high temperature conditions [2]: the impurities increased

Q: Which “stability under accelerated conditions” value [2] does the source give for `NCc1c[nH]c(=S)n1[C@H]1CCc2c(F)cc(F)cc2C1.O=S(=O)(O)O` [crystal form III of sulfate salt (1:1), bisulfate salt of nepicastat] here?
A: The value was “stable”.

Q: And the “stability under high temperature conditions” value [2]?
A: Its value is “the impurities increased”.

Q: With `Cl.NCc1c[nH]c(=S)n1[C@H]1CCc2c(F)cc(F)cc2C1` [hydrochloride salt of nepicastat] as the compound, how does the “solubility in purified water” value [4] read?
A: Its value is 7400 µg/mL.

Q: For `NCc1c[nH]c(=S)n1[C@H]1CCc2c(F)cc(F)cc2C1.NCc1c[nH]c(=S)n1[C@H]1CCc2c(F)cc(F)cc2C1.O=S(=O)(O)O` [crystal form II of sulfate salt (1:0.5), sulfate salt of nepicastat], which “stability under accelerated conditions” value [2] is on record?
A: Its value is “stable”.

Q: What about the “stability under high temperature conditions” value [2] of the same compound?
A: The value was “the impurities increased”.

Q: Which “stability under accelerated conditions” value [2] does the source give for `NCc1c[nH]c(=S)n1[C@H]1CCc2c(F)cc(F)cc2C1.O=C(O)/C=C/C(=O)O` [crystal form I of fumarate salt, fumarate salt of nepicastat] here?
A: The value was “stable”.

Q: What about the “stability under high temperature conditions” value [2] of the same compound?
A: Its value is “the impurities increased”.

Q: Which results are given for `Cl.NCc1c[nH]c(=S)n1[C@H]1CCc2c(F)cc(F)cc2C1` [crystal form II of hydrochloride salt, hydrochloride salt of nepicastat]?
A: hygroscopicity of the sample ([5]; DVS, 0% RH to 80% RH): slight hygroscopicity; weight gain by hygroscopicity ([5]; DVS, from 0% RH to 80% RH, 25° C.): about 0.453%; crystal form before and after the DVS test ([5]; XRPD before and after DVS): remained unchanged; crystal form stability (XRPD pattern) ([6]; 40° C.): converted into the crystal form III; crystal form stability (XRPD pattern) ([6]; 40° C./75% RH, 15 days): the crystal form did not change; crystal form stability (XRPD pattern) ([6]; 60° C., 15 days): converted into the crystal form III; crystal form stability (XRPD pattern) ([6]; 60° C./75% RH, 15 days): the crystal form did not change; stability in competitive experiment ([7]; ethanol-water mixed solutions with lower water activity (0.291-0.750)): could exist stably; stability in competitive experiment ([7]; purified water): not as good as that of the crystal form I
